In US8759318B2, “Phosphoramidate derivatives of guanosine nucleoside compounds for treatment of viral infections” (Inhibitex, Inc., priority 2009, dated 2014):
Like-named read-outs stand apart in the source and are kept apart here.

What was measured:
[1] = Mouse PK: 2'-C-methylguanosine triphosphate levels in liver; settings: 2'-C-methylguanosine triphosphate in mouse liver, 50 mg/kg PO
[2] = Protide stability in normal plasma, rat; assay type: in vitro ADME; settings: 37° C.
Experimental: (§1) Selected nucleoside 5′-phosphoramidates were examined for stability in human, cynomolgous monkey, rat and mouse plasma at 37° C. at both 30 min and 90 min time points.
(§2) Protide Stability in Normal Plasma: Plasma samples were prepared for analysis as follows. 50 μl of each test sample were distributed a 96-well V-bottom plate. 200 μl of acetonitrile containing 10 ng/ml of an internal standard was added to each plasma sample. The precipitated samples were centrifuged at 2500 rpm, 4° C. for 20 minutes in a Sorvall RT6000S centrifuge (Thermo Scientific, Waltham Mass.) and 100 μl of supernatant from each sample was transferred into a 96 deep well plate followed by the addition of 100 μl H2O to each sample. Samples were covered, mixed well by vortexing and maintained at 2-8° C. before and during analysis. 15 μl of each test sample was analyzed for protide concentrations by liquid chromatography coupled to tandem mass spectrometry (LC-MS/MS). Liquid chromatography was performed with an Agilent 1100 Series HPLC system equipped with a Synergi 4 μm Polar-RP, 30×2.0 mm column (Phenomenex, Torrance, Calif.). The HPLC system was coupled to an API 4000 triple quadrupole mass spectrometer (Applied Biosystems, Framingham, Mass.). Mass spectrometry was performed in positive ion mode and data was analyzed using Analyst® v1.4.2 software (Applied Biosystems, Framingham, Mass.). Data was presented as the percentage of compound recovered as compared to the 0 time point control.

[3] = Protide stability in normal plasma, human; assay type: in vitro ADME; settings: 37° C.
Experimental: as §1, §2

[4] = Protide stability in normal plasma, mouse; assay type: in vitro ADME; settings: 37° C.
Experimental: as §1, §2

[5] = Protide stability in normal plasma, cynomolgous monkey; assay type: in vitro ADME; settings: 37° C.
Experimental: as §1, §2

[6] = system: HCV replicon (Genotype 1b); assay: Luciferase genotype 1b replicon potency assay; settings: Hepatitis C virus, GETYPE1B, read-out: IC50 μM, HCV genotype 1b luciferase replicon, Renilla luciferase reporter
in vitro = settings: human
[7] = mouse, in vivo, po, 50 mg/kg; for Cmax / T1/2 / Tmax: female, ICR

Row | SMILES | AUC0-6 [1] | % Compound Remaining Compared to %100 Acetonitrile Control ([2]; 30 min) | % Compound Remaining Compared to %100 Acetonitrile Control ([2]; 1.5 h) | % Compound Remaining Compared to %100 Acetonitrile Control ([3]; 30 min) | % Compound Remaining Compared to %100 Acetonitrile Control ([3]; 1.5 h) | % Compound Remaining Compared to %100 Acetonitrile Control ([4]; 30 min) | % Compound Remaining Compared to %100 Acetonitrile Control ([4]; 1.5 h) | % Compound Remaining Compared to %100 Acetonitrile Control ([5]; 30 min) | % Compound Remaining Compared to %100 Acetonitrile Control ([5]; 1.5 h) | IC50 [6] | CC50 (in vitro) | Cmax [7] | T1/2 [7] | Tmax [7] | AUC0-6 [7] | AUC0-24 [7]
1 | C[C@H](NP(=O)(OC[C@H]1OC(n2cnc3c(=O)[nH]c(N)nc32)[C@](C)(O)[C@@H]1O)Oc1cccc2ccccc12)C(=O)OCC(C)(C)C (stereo partly shown) [A, reference compound] | 1584 ng·h/g | 0% | 0% | 83.2% | 80.8% | 0% | 0% | 98.5% | 102.4% | – | – | – | – | – | – | –
2 | COc1nc(N)nc2c1ncn2C1O[C@H](COP(=O)(N[C@H](C(=O)OC2CCOCC2)C(C)C)Oc2cccc3ccccc23)[C@@H](O)[C@@]1(C)O (stereo partly drawn) [Example 47, (2S)-tetrahydro-2H-pyran-4-yl 2-((((2R,3R,4R)-5-(2-amino-6-methoxy-9H-purin-9-yl)-3,4-dihydroxy-4-methyltetrahydrofuran-2-yl)methoxy)(naphthalen-1-yloxy)phosphorylamino)-3-methylbutanoate] | – | 71.3% | 57.3% | 105.1% | 129.5% | 74.3% | 67.4% | 112.5% | 118.5% | 0.18 µM | > 100000 nM | – | – | – | – | –
3 | COc1nc(N)nc2c1ncn2C1O[C@H](COP(=O)(N[C@H](C(=O)O[C@@H](C)c2ccccc2)C(C)C)Oc2cccc3ccccc23)[C@@H](O)[C@@]1(C)O (stereo partly drawn) [Example 38, (2S)-((S)-1-phenylethyl) 2-((((2R,3R,4R)-5-(2-amino-6-methoxy-9H-purin-9-yl)-3,4-dihydroxy-4-methyltetrahydrofuran-2-yl)methoxy) (naphthalen-1-yloxy)phosphorylamino)-3-methylbutanoate] | – | – | – | – | – | – | – | – | – | 0.94 µM | 29000 nM | 3130.0 ng/g | 4.3 h | 4.0 h | 14380 ng·h/g | 26837 ng·h/g
4 | COc1nc(N)nc2c1ncn2C1O[C@H](COP(=O)(N[C@H](C(=O)OCc2ccccc2)C(C)C)Oc2cccc3ccccc23)[C@@H](O)[C@@]1(C)O (stereo partly shown) [Example 36] | – | 16.9% | 1.4% | 70.3% | 74.1% | 0.4% | 0% | 93.7% | 96% | 0.09 µM | 34000 nM | 1209.7 ng/g | 2.0 h | 4.0 h | 5055 ng·h/g | 6356 ng·h/g
5 | C[C@H](NP(=O)(OC[C@H]1OC(n2cnc3c(=O)[nH]c(N)nc32)[C@](C)(O)[C@@H]1O)Oc1cccc2ccccc12)C(=O)O[C@@H](C)c1ccccc1 (stereo partly shown) [G, reference compound] | 6977 ng·h/g | – | – | – | – | – | – | – | – | – | – | – | – | – | – | –
6 | CC(C)[C@H](NP(=O)(OC[C@H]1OC(n2cnc3c(=O)[nH]c(N)nc32)[C@](C)(O)[C@@H]1O)Oc1cccc2ccccc12)C(=O)OCC(C)(C)C (stereo partly shown) [B, reference compound] | – | 66.7% | 42.0% | 74.7% | 78.1% | 68.3% | 32.3% | 84.5% | 84.9% | – | – | – | – | – | – | –
7 | CC(C)[C@H](NP(=O)(OC[C@H]1OC(n2cnc3c(=O)[nH]c(N)nc32)[C@](C)(O)[C@@H]1O)Oc1cccc2ccccc12)C(=O)OCc1ccccc1 (stereo partly shown) [M, reference compound] | 1937 ng·h/g | – | – | – | – | – | – | – | – | – | – | – | – | – | – | –
8 | COc1nc(N)nc2c1ncn2C1O[C@H](COP(=O)(N[C@@H](C)C(=O)OCc2ccccc2)Oc2cccc3ccccc23)[C@@H](O)[C@@]1(C)O (stereo partly shown) [Example 13] | – | – | – | 97.2% | 85.4% | <3.9% | – | 89.1% | 77.0% | 0.026 µM | 14000 nM | – | – | – | – | –
9 | COc1nc(N)nc2c1ncn2C1O[C@H](COP(=O)(N[C@H](C(=O)OCC(C)(C)C)C(C)C)Oc2c(C)ccc3ccccc23)[C@@H](O)[C@@]1(C)O (stereo partly shown) [Example 54] | – | 60.6% | 58.4% | 80.4% | 93.5% | 60.7% | 45.7% | 119.3% | 124.2% | 1.5 µM | 23000 nM | – | – | – | – | –
10 | COC(=O)[C@@H](C)c1ccc2cc(OP(=O)(N[C@H](C(=O)OCC(C)(C)C)C(C)C)OC[C@H]3OC(n4cnc5c(OC)nc(N)nc54)[C@](C)(O)[C@@H]3O)ccc2c1 (stereo partly drawn) [Example 48, (2S)-neopentyl 2-((((2R,3R,4R)-5-(2-amino-6-methoxy-9H-purin-9-yl)-3,4-dihydroxy-4-methyltetrahydrofuran-2-yl)methoxy) (6-((S)-1-methoxy-1-oxopropan-2-yl)naphthalen-2-yloxy)phosphorylamino)-3-methylbutanoate] | – | – | – | – | – | – | – | – | – | 0.21 µM | 29000 nM | – | – | – | – | –
11 | CCCOC(=O)[C@H](C)NP(=O)(OC[C@H]1OC(n2cnc3c(OC)nc(N)nc32)[C@](C)(O)[C@@H]1O)Oc1cccc2ccccc12 (stereo partly drawn) [Example 17, (2S)-propyl 2-((((2R,3R,4R)-5-(2-amino-6-methoxy-9H-purin-9-yl)-3,4-dihydroxy-4-methyltetrahydrofuran-2-yl)methoxy)(naphthalen-1-yloxy)phosphorylamino)propanoate] | – | – | – | – | – | – | – | – | – | 0.029 µM | 12000 nM | – | – | – | – | –
12 | COC(=O)[C@@H](C)c1ccc2cc(OP(=O)(N[C@@H](C)C(=O)OCC(C)(C)C)OC[C@H]3OC(n4cnc5c(OC)nc(N)nc54)[C@](C)(O)[C@@H]3O)ccc2c1 (stereo partly drawn) [Example 28, (2S)-methyl 2-(6-((((2R,3R,4R)-5-(2-amino-6-methoxy-9H-purin-9-yl)-3,4-dihydroxy-4-methyltetrahydrofuran-2-yl)methoxy)((S)-1-(neopentyloxy)-1-oxopropan-2-ylamino)phosphoryloxy)naphthalen-2-yl)propanoate] | – | – | – | – | – | – | – | – | – | 0.023 µM | 19000 nM | – | – | – | – | –
13 | COc1nc(N)nc2c1ncn2C1O[C@H](COP(=O)(N[C@@H](C)C(=O)OC2CCCC2)Oc2cccc3ccccc23)[C@@H](O)[C@@]1(C)O (stereo partly drawn) [Example 24, (2S)-cyclopentyl 2-((((2R,3R,4R)-5-(2-amino-6-methoxy-9H-purin-9-yl)-3,4-dihydroxy-4-methyltetrahydrofuran-2-yl)methoxy)(naphthalen-1-yloxy)phosphorylamino)propanoate] | – | – | – | – | – | – | – | – | – | 0.02 µM | 9000 nM | – | – | – | – | –
